experiment: recombinant barcode read abundance after kanamycin selection (control-corrected) (log10(CPM+1)); higher = more efficient recombination; sequences stand for … in AGTGCAGAGAAAATCGGCCAGTTTTCTCTGCCTGCAGTCCGCATGCCGT…AGATTTATGCAGCGGACTGCCTTTCTCCCAAAGTGATAAACCGGACAGTATCATGGACCGGTTTTCCCGGTAATCCGTATTTGCAAGGTTGGTTTCACT; site = the 11-nt target
Summary of the method: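 Reported as log10(CPM+1), each value stands for recombination efficiency. That efficiency is the averaged, control-corrected counts per million of barcodes found at recombinant junctions. Cells from a pooled E. coli library pairing targets with IS621 bridge RNA target-binding loops were plated twice on chloramphenicol/ampicillin LB agar (control) and twice on chloramphenicol/ampicillin/kanamycin with 0.1 mM IPTG.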
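Further: IS621 recombinase and bridge RNA in Escherichia coli cells.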

Sequence | recombinant barcode read abundance (log10)
TAACCTGCTTGGGTTCTAACCTGTTGCCT (site TAACCTTCTAG) | 0.624
TAACCTTCTTGGGTTCTAACCTGTTGCCT (site TAACCTACTAG) | 0
TAACCTTCTTGGGTTCTAACCTGTTGCCT (site TAACCTCCTAG) | 0.019
TAACCTTCTTGGGTTCTAACCTGTTGCCT (site TAACCTGCTAG) | 0.00987
TAACCTTCTTGGGTTCTAACCTGTTGCCT (site TAACCTTCTAG) | 0.472
TAAGACCCTTGGGTTCTAACCTGTTGCCT (site TAAGACCCTAG) | 2.33
TAAGACCCTTGGGTTCTAACCTGTTGCCT (site TCAGACCCTAG) | 0.454
TAAGACGCTTGGGTTCTAACCTGTTGCCT (site TAAGACGCTAG) | 2.33
TAAGACGCTTGGGTTCTAACCTGTTGCCT (site TACGACGCTAG) | 0.0565
TAAGACGCTTGGGTTCTAACCTGTTGCCT (site TAGGACGCTAG) | 0.729
TAAGACGCTTGGGTTCTAACCTGTTGCCT (site TATGACGCTAG) | 1.05
TAAGGTCCTTGGGTTCTAACCTGTTGCTT (site AGGTCAACTCG) | 0.224
TAAGGTCCTTGGGTTCTAACCTGTTGCTT (site TAAGGTCCTAA) | 1.49
TAAGTACCTTGGGTTCTAACCTGTTGCCT (site AAAGTACCTAG) | 1.12
TAAGTACCTTGGGTTCTAACCTGTTGCCT (site CAAGTACCTAG) | 0.517
TAAGTACCTTGGGTTCTAACCTGTTGCCT (site GAAGTACCTAG) | 0.029
TAAGTACCTTGGGTTCTAACCTGTTGCCT (site TAAGTACCTAG) | 1.88
TAATATTCTTGGGTTCTAACCTGTTGCCT (site TAATATTCTAG) | 0.0128
TAATATTCTTGGGTTCTAACCTGTTGCCT (site TAGGATTCTAG) | 0.041
TAATCCTCTTGGGTTCTAACCTGTTGCCT (site AAATCCTCTAG) | 0.984
TAATCCTCTTGGGTTCTAACCTGTTGCCT (site CAATCCTCTAG) | 0.0292
TAATCCTCTTGGGTTCTAACCTGTTGCCT (site GAATCCTCTAG) | 0.0754
TAATCCTCTTGGGTTCTAACCTGTTGCCT (site TAATCCTCTAG) | 1.3
TAATCGACTTGGGTTCTAACCTGTTGCCT (site TAATCGACTAG) | 0.102
TAATCGACTTGGGTTCTAACCTGTTGCCT (site TAATCGCCTAG) | 0.643
TAATCGACTTGGGTTCTAACCTGTTGCCT (site TAATCGGCTAG) | 0

Sequence | recombinant barcode read abundance (log10)
TAATCGACTTGGGTTCTAACCTGTTGCCT (site TAATCGTCTAG) | 0.0431
TAATGGCCTTGGGTTCTAACCTGTTGCGA (site ATGAACACTCA) | 0.0388
TAATGGCCTTGGGTTCTAACCTGTTGCGA (site TAATGGCCTTC) | 0.942
TAATGTACTTGGGTTCTAACCTGTTGCCT (site TAATGAACTAG) | 0.125
TAATGTACTTGGGTTCTAACCTGTTGCCT (site TAATGTACTAG) | 0.556
TAATTAGCTTGGGTTCTAACCTGTTGCCT (site TAAATAGCTAG) | 0.0142
TAATTAGCTTGGGTTCTAACCTGTTGCCT (site TAATTAGCTAG) | 0.435
TACAAGACTTGGGTTCTAACCTGTTGCGT (site GGACCCTCTGT) | 0.168
TACAAGACTTGGGTTCTAACCTGTTGCGT (site TACAAGACTAC) | 1.36
TACAAGTCTTGGGTTCTAACCTGTTGCCT (site CTACGACCTCC) | 0.289
TACAAGTCTTGGGTTCTAACCTGTTGCCT (site TACAAGTCTAG) | 0.625
TACAGACCTTGGGTTCTAACCTGTTGCCT (site AACAGACCTAG) | 0.11
TACAGACCTTGGGTTCTAACCTGTTGCCT (site CACAGACCTAG) | 0.197
TACAGACCTTGGGTTCTAACCTGTTGCCT (site GACAGACCTAG) | 0.065
TACAGACCTTGGGTTCTAACCTGTTGCCT (site TACAGACCTAG) | 1.11
TACAGCTCTTGGGTTCTAACCTGTTGCTT (site TACAGCTCTAA) | 0.016
TACAGCTCTTGGGTTCTAACCTGTTGCTT (site TACCGCTCTAA) | 0.104
TACAGCTCTTGGGTTCTAACCTGTTGCTT (site TACGGCTCTAA) | 0.0374
TACAGCTCTTGGGTTCTAACCTGTTGCTT (site TACTGCTCTAA) | 0.107
TACATCCCTTGGGTTCTAACCTGTTGCCC (site TACATCCCTAG) | 0.41
TACATCCCTTGGGTTCTAACCTGTTGCCC (site TACATCCCTCG) | 0.111
TACATCCCTTGGGTTCTAACCTGTTGCCC (site TACATCCCTGG) | 0.646
TACATCCCTTGGGTTCTAACCTGTTGCCC (site TACATCCCTTG) | 0.0347
TACCATTCTTGGGTTCTAACCTGTTGCTT (site TACAGTTCTAA) | 0.0331
TACCATTCTTGGGTTCTAACCTGTTGCTT (site TACCATTCTAA) | 0.239
TACCCACCTTGGGTTCTAACCTGTTGCCT (site AACCCACCTAG) | 0.295

Sequence | recombinant barcode read abundance (log10)
TACCCACCTTGGGTTCTAACCTGTTGCCT (site CACCCACCTAG) | 0.169
TACCCACCTTGGGTTCTAACCTGTTGCCT (site GACCCACCTAG) | 0.262
TACCCACCTTGGGTTCTAACCTGTTGCCT (site TACCCACCTAG) | 1.47
TACCCATCTTGGGTTCTAACCTGTTGCCT (site TAACCATCTAG) | 0.0921
TACCCATCTTGGGTTCTAACCTGTTGCCT (site TACCCATCTAG) | 0.862
TACCCATCTTGGGTTCTAACCTGTTGCCT (site TAGCCATCTAG) | 0.106
TACCCATCTTGGGTTCTAACCTGTTGCCT (site TATCCATCTAG) | 0.0366
TACCCGACTTGGGTTCTAACCTGTTGCCT (site TACCAGACTAG) | 0.0911
TACCCGACTTGGGTTCTAACCTGTTGCCT (site TACCCGACTAG) | 1.41
TACCCGACTTGGGTTCTAACCTGTTGCCT (site TACCGGACTAG) | 0.178
TACCCGACTTGGGTTCTAACCTGTTGCCT (site TACCTGACTAG) | 0.00741
TACCCGCCTTGGGTTCTAACCTGTTGCCT (site TACCCGCCTAG) | 0.838
TACCCGCCTTGGGTTCTAACCTGTTGCCT (site TCCCCGGCTAG) | 0.206
TACCCTACTTGGGTTCTAACCTGTTGCAT (site TACACTACTAT) | 0.0106
TACCCTACTTGGGTTCTAACCTGTTGCAT (site TACCCTACTAT) | 0.654
TACCGCCCTTGGGTTCTAACCTGTTGCGT (site GGAAAGACTGT) | 0.166
TACCGCCCTTGGGTTCTAACCTGTTGCGT (site TACCGCCCTAC) | 1.95
TACCGGACTTGGGTTCTAACCTGTTGCGT (site TACCGGACTAC) | 2.13
TACCGGACTTGGGTTCTAACCTGTTGCGT (site TACCGGCCTAA) | 0.0831
TACCGTTCTTGGGTTCTAACCTGTTGCCT (site TAACGTTCTAG) | 0
TACCGTTCTTGGGTTCTAACCTGTTGCCT (site TACCGTTCTAG) | 0.41
TACGAATCTTGGGTTCTAACCTGTTGCCG (site TACGAATCTAG) | 0.235
TACGAATCTTGGGTTCTAACCTGTTGCCG (site TACGAATCTCG) | 0.465
TACGAGGCTTGGGTTCTAACCTGTTGCCT (site TACGAGGCTAG) | 0.406
TACGAGGCTTGGGTTCTAACCTGTTGCCT (site TACGCGGCTAG) | 0.0314

— the supplement of paper PMC11208160
